# Test results taken from patent publication US10087178B2, “Substituted spiropyrido[1,2-a]pyrazine derivative and medicinal use thereof as HIV integrase inhibitor” (priority 2012, dated 2018).
# Where a name gives a salt, the structure may show the parent alone. Read-outs that look alike come from different tables or passages of the source.
# Tested on: HIV-1 NL4-3 strain
# Assay: Evaluation of antiviral activity: acute infection system of MT-4 cell with HIV-1 NL4-3 strain
# Type: cell-based
# Settings: Human immunodeficiency virus 1, NL43, MT4, 120 h
# [1] = antiviral activity, MT-4 cells infected with HIV-1 NL4-3 (MOI 0.05), 5 days culture, Cell Titer-Glo luminescence, read-out: EC50
# [2] = MT-4 cells infected with HIV-1 NL4-3 strain (MOI 0.05), cultured 5 days, Cell Titer-Glo, read-out: antiviral activity (EC50)
SMILES,EC50 [1] [nM],EC50 [2] [nM]
"CCN1C[C@]2(C[C@H](OCc3ccccc3)C2)n2cc(C(=O)NCc3ccc(F)cc3F)c(=O)c(O)c2C1=O [Example S16, cis-3-(benzyloxy)-N-(2,4-difluorobenzyl)-2′-ethyl-9′-hydroxy-1′,8′-dioxo-1′,2′,3′,8′-tetrahydrospiro[cyclobutane-1,4′-pyrido[1,2-a]pyrazine]-7′-carboxamide hydrochloride]",7.8,
"CCN1C[C@]2(C[C@@H](O)C2)n2cc(C(=O)NCc3ccc(F)cc3F)c(=O)c(O)c2C1=O [Example S17, N-(2,4-difluorobenzyl)-2′-ethyl-trans-3,9′-dihydroxy-1′,8′-dioxo-1′,2′,3′,8′-tetrahydrospiro[cyclobutane-1,4′-pyrido[1,2-a]pyrazine]-7′-carboxamide hydrobromide]",20,
"CCN1C[C@]2(C[C@H](O)C2)n2cc(C(=O)NCc3ccc(F)cc3F)c(=O)c(O)c2C1=O [Example S18, N-(2,4-difluorobenzyl)-2′-ethyl-cis-3,9′-dihydroxy-1′,8′-dioxo-1′,2′,3′,8′-tetrahydrospiro[cyclobutane-1,4′-pyrido[1,2-a]pyrazine]-7′-carboxamide hydrobromide]",16,
"CCN1C[C@]2(C[C@@H](OC)C2)n2cc(C(=O)NCc3ccc(F)cc3F)c(=O)c(O)c2C1=O [Example S19, N-(2,4-difluorobenzyl)-2′-ethyl-9′-hydroxy-trans-3-methoxy-1′,8′-dioxo-1′,2′,3′,8′-tetrahydrospiro[cyclobutane-1,4′-pyrido[1,2-a]pyrazine]-7′-carboxamide hydrochloride]",4.8,
"CCN1C[C@]2(C[C@H](OC)C2)n2cc(C(=O)NCc3ccc(F)cc3F)c(=O)c(O)c2C1=O [Example S20, N-(2,4-difluorobenzyl)-2′-ethyl-9′-hydroxy-cis-3-methoxy-1′,8′-dioxo-1′,2′,3′,8′-tetrahydrospiro[cyclobutane-1,4′-pyrido[1,2-a]pyrazine]-7′-carboxamide hydrochloride]",3.5,
"CCO[C@H]1C[C@]2(CN(CC)C(=O)c3c(O)c(=O)c(C(=O)NCc4ccc(F)cc4F)cn32)C1 [Example S21, N-(2,4-difluorobenzyl)-cis-3-ethoxy-2′-ethyl-9′-hydroxy-1′,8′-dioxo-1′,2′,3′,8′-tetrahydrospiro[cyclobutane-1,4′-pyrido[1,2-a]pyrazine]-7′-carboxamide hydrochloride]",3.8,
"CC(C)N1C[C@]2(C[C@H](CO)C2)n2cc(C(=O)NCc3ccc(F)cc3F)c(=O)c(O)c2C1=O [Example S22, N-(2,4-difluorobenzyl)-9′-hydroxy-cis-3-(hydroxymethyl)-2′-isopropyl-1′,8′-dioxo-1′,2′,3′,8′-tetrahydrospiro[cyclobutane-1,4′-pyrido[1,2-a]pyrazine]-7′-carboxamide hydrobromide]",,5
"COC[C@H]1C[C@]2(CN(C(C)C)C(=O)c3c(O)c(=O)c(C(=O)NCc4ccc(F)cc4F)cn32)C1 [Example S23, N-(2,4-difluorobenzyl)-9′-hydroxy-2′-isopropyl-cis-3-(methoxymethyl)-1′,8′-dioxo-1′,2′,3′,8′-tetrahydrospiro[cyclobutane-1,4′-pyrido[1,2-a]pyrazine]-7′-carboxamide hydrochloride]",,6.3
"CC(C)N1C[C@]2(C[C@@H](CO)C2)n2cc(C(=O)NCc3ccc(F)cc3F)c(=O)c(O)c2C1=O [Example S24, N-(2,4-difluorobenzyl)-9′-hydroxy-trans-3-(hydroxymethyl)-2′-isopropyl-1′,8′-dioxo-1′,2′,3′,8′-tetrahydrospiro[cyclobutane-1,4′-pyrido[1,2-a]pyrazine]-7′-carboxamide hydrobromide]",,16
"COC[C@H]1C[C@@]2(CN(C(C)C)C(=O)c3c(O)c(=O)c(C(=O)NCc4ccc(F)cc4F)cn32)C1 [Example S25, N-(2,4-difluorobenzyl)-9′-hydroxy-2′-isopropyl-trans-3-(methoxymethyl)-1′,8′-dioxo-1′,2′,3′,8′-tetrahydrospiro[cyclobutane-1,4′-pyrido[1,2-a]pyrazine]-7′-carboxamide hydrochloride]",,7
"CN1C[C@]2(C[C@@H](O)C2)n2cc(C(=O)NCc3cccc(Cl)c3F)c(=O)c(O)c2C1=O [Example S26, N-(3-chloro-2-fluorobenzyl)- trans-3,9′-dihydroxy-2′-methyl-1′,8′-dioxo-1′,2′,3′,8′-tetrahydrospiro[cyclobutane-1,4′-pyrido[1,2-a]pyrazine]-7′-carboxamide hydrochloride]",,3.4
"CN1C[C@]2(C[C@H](O)C2)n2cc(C(=O)NCc3cccc(Cl)c3F)c(=O)c(O)c2C1=O [Example S27, N-(3-chloro-2-fluorobenzyl)- cis-3,9′-dihydroxy-2′-methyl-1′,8′-dioxo-1′,2′,3′,8′-tetrahydrospiro[cyclobutane-1,4′-pyrido[1,2-a]pyrazine]-7′-carboxamide hydrochloride]",,14
"CCO[C@H]1C[C@@]2(CN(C)C(=O)c3c(O)c(=O)c(C(=O)NCc4cccc(Cl)c4F)cn32)C1 [Example S28, N-(3-chloro-2-fluorobenzyl)- trans-3-ethoxy-9′-hydroxy-2′-methyl-1′,8′-dioxo-1′,2′,3′,8′-tetrahydrospiro[cyclobutane-1,4′-pyrido[1,2-a]pyrazine]-7′-carboxamide hydrochloride]",,3.6
"CCO[C@H]1C[C@]2(CN(C)C(=O)c3c(O)c(=O)c(C(=O)NCc4cccc(Cl)c4F)cn32)C1 [Example S29, N-(3-chloro-2-fluorobenzyl)- cis-3-ethoxy-9′-hydroxy-2′-methyl-1′,8′-dioxo-1′,2′,3′,8′-tetrahydrospiro[cyclobutane-1,4′-pyrido[1,2-a]pyrazine]-7′-carboxamide hydrochloride]",,4.3
"CNC(=O)[C@H]1C[C@]2(CN(C(C)C)C(=O)c3c(O)c(=O)c(C(=O)NCc4ccc(F)cc4F)cn32)C1 [Example S30, N^7′-(2,4-difluorobenzyl)-9′-hydroxy-2′-isopropyl-N^3-methyl-1′,8′-dioxo-1′,2′,3′,8′-tetrahydrospiro[cyclobutane-1,4′-pyrido[1,2-a]pyrazine]- cis-3,7′-dicarboxamide hydrochloride]",,170
"CC(C)N1C[C@]2(C[C@H](C(=O)N(C)C)C2)n2cc(C(=O)NCc3ccc(F)cc3F)c(=O)c(O)c2C1=O [Example S31, N^7′-(2,4-difluorobenzyl)-9′-hydroxy-2′-isopropyl-N^3-N^3-dimethyl-1′,8′-dioxo-1′,2′,3′,8′-tetrahydrospiro[cyclobutane-1,4′-pyrido[1,2-a]pyrazine]- cis-3,7′-dicarboxamide hydrochloride]",,24
"CC(C)O[C@H]1C[C@@]2(CN(C(C)C)C(=O)c3c(O)c(=O)c(C(=O)NCc4ccc(F)cc4F)cn32)C1 [Example S32, N-(2,4-difluorobenzyl)-9′-hydroxy-trans-3-isopropoxy-2′-isopropyl-1′,8′-dioxo-1′,2′,3′,8′-tetrahydrospiro[cyclobutane-1,4′-pyrido[1,2-a]pyrazine]-7′-carboxamide hydrochloride]",,6.6
"CC(C)O[C@H]1C[C@]2(CN(C(C)C)C(=O)c3c(O)c(=O)c(C(=O)NCc4ccc(F)cc4F)cn32)C1 [Example S33, N-(2,4-difluorobenzyl)-9′-hydroxy-cis-3-isopropoxy-2′-isopropyl-1′,8′-dioxo-1′,2′,3′,8′-tetrahydrospiro[cyclobutane-1,4′-pyrido[1,2-a]pyrazine]-7′-carboxamide hydrochloride]",,6.4
"CC(C)N1C[C@]2(C[C@@H](OS(C)(=O)=O)C2)n2cc(C(=O)NCc3ccc(F)cc3F)c(=O)c(O)c2C1=O [Example S34, 7′-(2,4-difluorobenzylcarbamoyl)-9′-hydroxy-2′-isopropyl-1′,8′-dioxo-1′,2′,3′,8′-tetrahydrospiro[cyclobutane-1,4′-pyrido[1,2-a]pyrazine]- trans-3-yl methanesulfonate hydrochloride]",,5.7
"CC(C)N1C[C@]2(C[C@H](OS(C)(=O)=O)C2)n2cc(C(=O)NCc3ccc(F)cc3F)c(=O)c(O)c2C1=O [Example S35, 7′-(2,4-difluorobenzylcarbamoyl)-9′-hydroxy-2′-isopropyl-1′,8′-dioxo-1′,2′,3′,8′-tetrahydrospiro[cyclobutane-1,4′-pyrido[1,2-a]pyrazine]- cis-3-yl methanesulfonate hydrochloride]",,7.3
"CN1C[C@]2(C[C@@H](CO)C2)n2cc(C(=O)NCc3cccc(Cl)c3F)c(=O)c(O)c2C1=O [Example S36, N-(3-chloro-2-fluorobenzyl)-9′-hydroxy-trans-3-(hydroxymethyl)-2′-methyl-1′,8′-dioxo-1′,2′,3′,8′-tetrahydrospiro[cyclobutane-1,4′-pyrido[1,2-a]pyrazine]-7′-carboxamide]",,15
"CN1C[C@]2(C[C@H](CO)C2)n2cc(C(=O)NCc3cccc(Cl)c3F)c(=O)c(O)c2C1=O [Example S37, N-(3-chloro-2-fluorobenzyl)-9′-hydroxy-cis-3-(hydroxymethyl)-2′-methyl-1′,8′-dioxo-1′,2′,3′,8′-tetrahydrospiro[cyclobutane-1,4′-pyrido[1,2-a]pyrazine]-7′-carboxamide hydrochloride]",,3.8
"CC(=O)NC[C@H]1C[C@]2(CN(C(C)C)C(=O)c3c(O)c(=O)c(C(=O)NCc4ccc(F)cc4F)cn32)C1 [Example S38, cis-3-(acetamidomethyl)-N-(2,4-difluorobenzyl)-9′-hydroxy-2′-isopropyl-1′,8′-dioxo-1′,2′,3′,8′-tetrahydrospiro[cyclobutane-1,4′-pyrido[1,2-a]pyrazine]-7′-carboxamide hydrochloride]",,50
"CCOC[C@H]1C[C@]2(CN(C)C(=O)c3c(O)c(=O)c(C(=O)NCc4cccc(Cl)c4F)cn32)C1 [Example S39, N-(3-chloro-2-fluorobenzyl)- cis-3-(ethoxymethyl)-9′-hydroxy-2′-methyl-1′,8′-dioxo-1′,2′,3′,8′-tetrahydrospiro[cyclobutane-1,4′-pyrido[1,2-a]pyrazine]-7′-carboxamide hydrochloride]",,3.5
